For 17 compounds, GI50 and TGI results are on record in PubChem BioAssay (NCI).

Test in all cases: NCI tumour cell line growth inhibition, 48 h
In test [1] the test system is ACHN renal.
The subject of test [2] is CAKI-1 renal.
In test [3] the test system is HT29 colon.
The subject of test [4] is IGROV1 ovarian.
The test system of test [5] is LOX IMVI melanoma.
Test [6] concerns M14 melanoma.
The test system of test [7] is NCI-H522 lung.
Test [8] deals with PC-3 prostate.
Test [9] has as its system SK-OV-3 ovarian.
Test [10] deals with TK-10 renal.

“And” between values parts separate entries of the source, which are not always exact repeats. Equal entries are not always repeated.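 Interpolation was linear, between the two tested concentrations surrounding the appropriate level; five concentrations were tested over 48 hours in 96-well plates. GI50 is the concentration that inhibits growth by half. At the TGI there is no net growth.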 Where a SMILES comes first, the peptide text is derived from it. [ ]: non-standard residue; d: D form. 2Nal = N[CH](Cc1ccc2ccccc2c1)C(=O)O

Consider `CCOC(=O)c1c(C)c2c(n1C)CSc1cc(S(=O)(=O)c3ccccc3)c(=O)[nH]c1-2`, for which the GI50 was 26.3 µM in test [1]; 21.1 µM in [2]; 16.3 µM in [3]; 16.7 µM in [4]; 24.1 µM in [5]; 27.9 µM in [6]. The GI50 in [7] is 25.4 µM; in [8] it was 14 µM; in test [9], 28.9 µM; in test [10], 34.4 µM. For the same compound, the TGI in [1] was over 100 µM; in [2], over 100 µM; in test [3] it was 34.5 µM; in test [4] it was over 100 µM; in [5], over 100 µM; in [6] it was 77.7 µM. Further, the TGI in test [7], in [8], in test [9] and in [10] was over 100 µM in each case.
`Cc1oc2c(c1C(=O)c1ccccc1)C(=O)c1ccccc1C2=O`: the TGI in test [1] was determined as 15.3 µM; in test [2], 9.12 µM; in test [3], 39.6 µM; in [4], 15.9 µM; in test [5], 7.52 µM; in test [6] it was 10.1 µM. Moreover, the TGI in test [7] is 5.86 µM; in test [8], 21.7 µM; in [9] it was 20.7 µM; in [10], 33.2 µM.
On to `CC/C(=C(\c1ccc(O)cc1)c1ccc(OCCNC)cc1)c1ccccc1`, for which the GI50 was 2.11 µM and 1.65 µM and 1.94 µM in test [1]; 1.82 µM and 1.68 µM and 2.02 µM in test [2]; 1.71 µM and 1.55 µM in test [3]; 1.93 µM and 1.65 µM and 2.38 µM in test [4]; 1.47 µM and 1.45 µM and 1.73 µM in test [5]; 1.8 µM and 1.75 µM and 1.86 µM in [6]. The GI50 in test [7] was 1.78 µM and 1.5 µM and 1.97 µM; in [8], 1.84 µM and 1.77 µM and 2.25 µM; in test [9] it was 5.14 µM and 3.69 µM and 2.08 µM; in test [10], 2.39 µM and 1.88 µM and 2.56 µM. In addition, the TGI in [1] was 4.85 µM and 3.48 µM and 4.1 µM; in test [2], 4.28 µM and 3.52 µM and 6.29 µM; in test [3], 3.39 µM and 2.92 µM and 3.46 µM; in test [4], 4.13 µM and 3.25 µM and 5.4 µM; in test [5] it was 2.79 µM and 2.77 µM and 3.22 µM; in [6] it was 3.25 µM and 3.24 µM and 3.63 µM. The TGI was 3.84 µM and 3.19 µM and 3.83 µM in test [7]; 5.92 µM and 4.85 µM and 5.53 µM in test [8]; 13.6 µM and 9.3 µM and 5.09 µM in [9]; 5.5 µM and 3.89 µM and 6.26 µM in [10].
As to `CCOC(=O)c1cc(C(=O)c2cc(OC)cc(OC)c2)n2ncccc12`, the GI50 in test [1] was 12.2 µM; in [2], 2.97 µM; in [3] it was 0.403 µM; in test [4] it was 7.12 µM; in [5], 0.804 µM; in [6], 0.394 µM. Also, the GI50 in test [8] is 7.45 µM; in [9] it was 4.9 µM; in [10] it was 9.78 µM. Further, the TGI in test [1], in test [2], in [3], in [4], in test [5] and in test [6] was over 100 µM in each case. For the same compound, the TGI in test [8], in test [9] and in [10] was over 100 µM throughout.
`N#Cc1c(NC(=O)CCC(=O)O)ccc2ccccc12`: the TGI in [1], in test [2], in test [3], in test [4], in test [6] and in [7] was over 100 µM in each case. The TGI in [8], in [9] and in test [10] was over 100 µM throughout.
For `O=S(=O)(Nc1ccc(Cl)c(C(F)(F)F)c1)c1ccc(-c2cnc(C3CC3)o2)cc1`, the GI50 was 0.789 µM in [1]; 0.162 µM in [2]; 0.157 µM in test [3]; 0.507 µM in test [4]; 0.394 µM in test [5]; 0.276 µM in test [6]. In addition, the GI50 was 0.149 µM in test [7], 0.713 µM in test [8], 0.919 µM in test [9] and 1.8 µM in [10]. In addition, the TGI in test [1] is 6.88 µM; in test [2], 5.75 µM; in test [4] it was 5.96 µM; in [5] it was 3.22 µM; in test [6], 4.68 µM; in test [7], 3.25 µM. The TGI in [8] amounted to 6.59 µM; in test [9], 5.18 µM; in test [10], 9.58 µM.
`CS(=O)(=O)c1ccc(C(F)(F)F)cc1NC(=O)Nc1cnc(Oc2ccc(-c3cc(Cl)cnc3N)cc2)nc1`: the GI50 in [1] is 1.98 µM; in test [2], 2.98 µM; in test [3], 2.24 µM; in [4], 1.73 µM; in [5], 1.62 µM; in test [6], 2.02 µM. Moreover, the GI50 in test [7] is 2.23 µM; in test [8] it was 2.05 µM; in [9], 3.31 µM; in test [10] it was 2.21 µM. Also, the TGI came out at 6.32 µM in test [1]; 22.4 µM in test [2]; 7.52 µM in [3]; 6.04 µM in test [4]; 3.05 µM in [5]; 4.8 µM in [6]. Moreover, the TGI came out at 6.64 µM in [7], 6.23 µM in test [8], 18 µM in test [9] and 6.92 µM in [10].
`O=[N+]([O-])c1ccc2nc(N/N=C/c3ccc(O)cc3)sc2c1`: the GI50 was 4.63 µM in [1]; 4.07 µM in test [2]; 8.31 µM in test [3]; 3.84 µM in test [4]; 3.08 µM in [5]; 1.49 µM in test [7]. Also, the GI50 in test [8] is 4.51 µM; in [9] it was 5.37 µM; in test [10] it was 3.97 µM. In addition, the TGI in test [1] was over 100 µM; in test [2], 81.5 µM; in test [3], 28 µM; in [4], over 100 µM; in [5], 10.6 µM; in [7] it was 10.2 µM. The TGI came to 34.2 µM in test [8], 48.9 µM in test [9] and 29.8 µM in test [10].
For `C=CC(=O)Nc1cc2c(Nc3ccc(OCc4ccccn4)c(Cl)c3)ncnc2cc1OCCN1CCOCC1`, the GI50 in test [1] is 0.201 µM; in [2], 1.86 µM; in test [3] it was 4.04 µM; in test [4], 0.125 µM; in test [5] it was 1.81 µM; in test [6], 4.18 µM. Moreover, the figures for the GI50 in [7], in test [8] and in test [10] were 0.366 µM, 4.28 µM and 0.0267 µM, respectively. The TGI in test [1] is over 100 µM; in test [2], 19.7 µM; in [3] it was over 100 µM; in test [4] it was 4.01 µM; in [5], 5.83 µM; in [6], 19.6 µM. Besides, the TGI was 22.6 µM in [7], over 100 µM in test [8] and over 100 µM in test [10].
Turning to `COC(=O)c1c2c(c(C)[n+]([O-])c1C)C(=O)C(NCc1ccc(F)c(Cl)c1)=CC2=O`, the GI50 in [1] is 2.1 µM; in test [2], 2.52 µM; in test [3], 1.35 µM; in [5], 2.34 µM; in [6], 1.41 µM; in [7], 1.82 µM. Moreover, the results for the GI50 in [8], in test [9] and in test [10] were 2.27 µM, 3.57 µM and 3.76 µM, respectively. The TGI in test [1] is 7.9 µM; in [2], 10.4 µM; in test [3], over 100 µM; in test [5], 8.88 µM; in test [6], 3.12 µM; in test [7], 4.7 µM. In addition, the TGI in [8] is 12.9 µM; in test [9] it was 13.6 µM; in test [10] it was 16 µM.
As for `COCCOC(C)C(/C=N/NC(N)=S)=N/NC(N)=S` (centres undefined), the GI50 is over 100 µM in test [1]; over 100 µM in test [2]; 0.0643 µM in test [6]; over 100 µM in test [7]; 0.0574 µM in test [8]; over 100 µM in test [9]. Besides, the GI50 in test [10] is over 100 µM. Besides, the TGI in test [1], in test [2], in test [5], in [6], in [7] and in test [8] was over 100 µM throughout. The TGI in test [9] and in test [10] was over 100 µM throughout.
As to `COc1ccc2cc(C(=O)/C=C/c3ccc(OC)c(OC)c3)ccc2c1`, the GI50 is 14.5 µM in [1]; 21 µM in test [2]; 11.9 µM in test [3]; 10.5 µM in [4]; 3.38 µM in [5]; 11.2 µM in test [6]. For the same compound, the GI50 was 20.2 µM in test [8], 32.4 µM in [9] and 53.1 µM in test [10]. Besides, the TGI is 31.2 µM in [1]; 97.6 µM in [2]; 76.4 µM in test [3]; 78.2 µM in test [4]; over 100 µM in test [5]; 25.7 µM in test [6]. In addition, the TGI in test [8], in [9] and in test [10] was over 100 µM throughout.
On to `O=C(O)[C@@H]1C[C@@H](O)CN1`, for which the TGI in [1], in test [2], in test [3], in test [4], in [5] and in test [6] was over 100 µM throughout. Besides, the TGI in [8], in test [9] and in [10] was over 100 µM in each case.
Turning to `CC(NC(=O)C(N)Cc1ccccc1)C(=O)NC(Cc1ccc(O)cc1)C(=O)NC(Cc1c[nH]c2ccccc12)C(=O)NC(CCCCN)C(=O)NC(C(=O)NC(C)C(=O)NC(Cc1ccc2ccccc2c1)C(N)=O)C(C)C` (centres undefined) (H-FAYWKVA[2Nal]-NH2; configuration not given here), the GI50 in test [1] is 22.7 µM; in test [3], 37.1 µM; in test [4], 24.1 µM. In addition, the TGI was > 12.5 µM and 52.1 µM in test [1]; > 12.5 µM and 39.1 µM in [2]; over 100 µM in test [3]; > 12.5 µM and 49 µM in test [4]; over 12.5 µM in test [5]; over 12.5 µM in test [6]. The TGI in test [7], in test [8] and in [9] was over 12.5 µM throughout.
In the case of `Cc1cc(N2CCN(C)CC2)nc(NC2CCCC(Nc3ccnc4cc(Cl)ccc34)C2)n1` (centres undefined), the GI50 was 1.86 µM in test [1]; 2.14 µM in [3]; 2.24 µM in [4]; 1.77 µM in test [5]; 1.7 µM in test [6]; 2.29 µM in test [7]. The GI50 is 3.35 µM in test [8], 3.35 µM in [9] and 1.81 µM in test [10]. Besides, the TGI worked out at 3.51 µM in [1]; 6.16 µM in test [3]; 7.85 µM in [4]; 3.53 µM in [5]; 3.46 µM in test [6]; 5.3 µM in [7]. The TGI in [8] turned out to be 11.4 µM; in test [9], 11.5 µM; in [10], 3.63 µM.
As to `c1ccc(-c2cc(-c3cc(-c4ccccn4)[nH]n3)n[nH]2)nc1`, the TGI in test [1], in test [2], in [3], in test [4], in test [5] and in [6] was over 100 µM each time. The TGI in test [7], in [8] and in [9] was over 100 µM each time.
With `COC(=O)/C(=C/N1CCN(C(=O)c2ccco2)C1=S)C(C)=O`, the GI50 is 4.05 µM in test [1]; 2.82 µM in test [2]; 15.8 µM in [3]; 10.4 µM in test [4]; 1.59 µM in test [5]; 10.7 µM in test [6]. Moreover, the GI50 is 18.1 µM in [8], 31.3 µM in test [9] and 3.54 µM in test [10]. Further, the TGI in test [1] was found to be 17.8 µM; in [2], 8.52 µM; in [3], 46 µM; in [4], 36 µM; in test [5], 3.99 µM; in [6], 24.4 µM. Further, the TGI is over 100 µM in [8], 78.2 µM in test [9] and 14.9 µM in [10].
